The values below come from patent publication US8470852B2, “Substituted 2-amino-quinoline-3-carboxamides as KCNQ2/3 modulators” (Gruenenthal GmbH, priority 2010, dated 2013).

What is called EC50 is the concentration at which the effect is half-maximal. A higher EC50 goes with weaker potency.

One test deals with T1, KCNQ2/3 channels (Homo sapiens, UniProt O43525+O43526).
T1 construct: expressed in transfected cells; host or cells: CHO-K1 cells, kept under selection antibiotics
In words: Fluorescence assay using a voltage sensitive dye (fluorimetry). In kind it is cell-based. As to conditions: CHO-K1 cells expressing KCNQ2/3 channels; for Emax: relative to retigabine = 100%, read-out: Fluorimetry % efficacy (retigabine = 100%). Here is the method: Pharmacological Experiments Method I. Fluorescence Assay Using a Voltage Sensitive Dye (Fluorimetry)
[…] CHO-K1 cells expressing KCNQ2/3 channels are cultivated adherently at 37° C., 5% CO2 and 95% humidity in cell culture bottles (e.g. 80 cm^2 TC flasks, Nunc) with DMEM-high glucose (Sigma Aldrich, D7777) including 10% FCS (PAN Biotech, e.g. 3302-P270521) or alternatively MEM Alpha Medium (1×, liquid, Invitrogen, #22571), 10% fetal calf serum (FCS) (Invitrogen, #10270-106, heat-inactivated) and the necessary selection antibiotics.
Before being sown out for the measurements, the cells are washed with 1×DPBS buffer Ca^2+/Mg^2+-free (e.g. Invitrogen, #14190-094) and detached from the bottom of the culture vessel by using Accutase (PAA Laboratories, #L11-007) (incubation with Accutase for 15 min at 37° C.). The cell number is determined using a CASY™ cell counter (TCC, Schärfe System). Depending on the optimal density for each individual cell line, 20,000-30,000 cells/well/100 μl are seeded onto 96-well Corning™ CellBIND™ assay plates (Flat Clear Bottom Black Polystyrene Microplates, #3340). Freshly seeded cells are then left to settle for one hour at room temperature, followed by incubation for 24 hours at 37° C., 5% CO2 and 95% humidity.
The voltage-sensitive fluorescent dye from the Membrane Potential Assay Kit (Red™ Bulk format part R8123 for FLIPR, MDS Analytical Technologies™) is prepared by dissolving the contents of one vessel Membrane Potential Assay Kit Red Component A in 200 ml of extracellular buffer (ES buffer, 120 mM NaCl, 1 mM KCl, 10 mM HEPES, 2 mM CaCl2, 2 mM MgCl2, 10 mM glucose; pH 7.4). After removal of the nutrient medium, the cells are washed once with 200 μl of ES buffer, then loaded for 45 min at room temperature in 100 μl of dye solution in the dark.
Fluorescence measurements are carried out in a BMG Labtech FLUOstar™, BMG Labtech NOVOstar™ or BMG Labtech POLARstar™ instrument (525 nm excitation, 560 nm emission, Bottom Read mode). After incubation with the dye, 50 μl of the test substances in the desired concentrations, or 50 μl of ES buffer for control purposes, are applied to the wells of the assay plate and incubated for 30 min at room temperature while being shielded from light. The fluorescence intensity of the dye is then measured for 5 min and the fluorescence value F1 of each well is thus determined at a given, constant time. 15 μl of a KCl solution are then added to each well (final concentration of potassium ions 92 mM). The change in fluorescence intensity is subsequently monitored until all the relevant values have been obtained (mainly 5-30 min). At a given time post KCl application, a fluorescence value F2 is determined, in this case at the time of the fluorescence peak.
For calculation, the fluorescence intensity F2 is corrected for the fluorescence intensity F1, and the activity (ΔF/F) of the target compound on the potassium channel is determined as follows:
In order to determine whether a substance has agonistic activity,
[formula] can be related to
[formula] of control wells.
[formula] is determined by adding to the well only the buffer solution instead of the test substance, determining the value F1K of the fluorescence intensity, adding the potassium ions as described above, and measuring a value F2K of the fluorescence intensity. F2K and F1K are then calculated as follows: […]
A substance has an agonistic activity on the potassium channel if
[formula] is greater than
Independently of the comparison of
[formula] it is possible to conclude that a target compound has agonistic activity if
[formula] increases dose dependently.
Calculations of EC50 and IC50 values are carried out with the aid of ‘Prism v4.0’ software (GraphPad Software™).

Test [1] concerns acute noxious thermal stimulus (tail withdrawal reflex). Briefly: Low-intensity tail flick test (rat). It is filed as in vivo. As to conditions: dose 21.5 mg/kg. Here is the method:
Method II. Low-Intensity Tail Flick Test (Rat) In the low-intensity tail flick test, the determination of the antinociceptive effect of the compounds according to the invention towards an acute noxious thermal stimulus is carried out by measuring the withdrawal reflex of the rat tail (tail flick) in response to a radiant heat beam (analgesia meter; model 2011 of the company Rhema Labortechnik, Hofheim, Germany) according to the method described by D'Amour and Smith (J. Pharm. Exp. Ther. 72, 74 79 (1941). To this end, the rats were placed in a plexiglas restrainer, and a low-intensity radiant heat beam (48° C.) was focused onto the dorsal surface of the tail root. […] Before administration of a compound according to the invention, the animals were pre-tested twice in the course of five minutes and the mean of these measurements was calculated as the pre-test mean. The antinociceptive effect was determined at 20, 40 and 60 min after peroral compound administration. The antinociceptive effect was calculated based on the increase in the tail withdrawal latency according to the following formula and is expressed as percentage of the maximum possible effect (MPE [%]): MPE=[(T1−T0)/(T2−T0)]*100 In this, T0 is the control latency time before and T1 the latency time after administration of the compound, T2 is the cutoff time and MPE is the maximum possible effect. […]
On the technique in general: Thermal pain tests record how soon the animal reacts.

For test [2], the system named is formalin-induced nociceptive behaviour, second (late) phase. Briefly: Formalin test carried out on mice. In kind it is in vivo. Here is the method:
Method III. Formalin Test Carried Out on Mice In the formalin test, the testing to determine the antinociceptive effect of the compounds according to the invention is carried out on male mice (NMRI, 20 to 30 g body weight, Iffa, Credo, Belgium). In the formalin test as described by D. Dubuisson et al., Pain 1977, 4, 161-174, a distinction is drawn between the first (early) phase (up to 10 minutes after the injection of formalin) and the second (late) phase (up to 60 minutes after the injection of formalin). The early phase, as an immediate reaction to the injection of formalin, is a model of acute pain, whereas the late phase is regarded as a model of persistent (chronic) pain (T. J. Coderre et al., Pain 1993, 52, 259-285). […] Subsequently, the nociceptive behaviour is continuously detected by observing the animals over a test period of three minutes in the second (late) phase of the formalin test (21 to 24 minutes after the injection of formalin). The pain behaviour is quantified by adding up the seconds over which the animals display licking and biting of the paw in question during the test period. […] Based on the quantification of the pain behaviour, the effect of the substance is determined in the formalin test as a percentage change relative to the corresponding control. […]

`CCNc1nc2cc(C(F)(F)F)ccc2c(C)c1C(=O)NCc1cccc(F)c1` [Example 1, 2-ethylamino-N-[(3-fluorophenyl)-methyl]-4-methyl-7-(trifluoromethyl)-quinoline-3-carboxylic acid amide]: at KCNQ2/3 channels, the EC50 came out at 0.252 µM and the Emax stood at 141%. The “Low intensity tail flick, rat, peroral, MPE (dose)” value in test [1] is given as 44% (21.5). Further, the “Formalin test, mice, intravenous, MPE (dose)” value in test [2] (dose 4.64 mg/kg) is given as 71% (4.64).
As to `Cc1c(C(=O)NCc2cccc(F)c2)c(N2CCCC2)nc2cc(C(F)(F)F)ccc12` [Example 2, N-[(3-fluorophenyl)-methyl]-4-methyl-2-pyrrolidin-1-yl-7-(trifluoromethyl)-quinoline-3-carboxylic acid amide], at KCNQ2/3 channels, it took 0.801 µM to reach a half-maximal effect (EC50) and the Emax worked out at 186%.
The like results for `Cc1c(C(=O)NCc2ccc(F)cc2)c(N(C)C)nc2cc(C(F)(F)F)ccc12` [Example 3, 2-dimethylamino-N-[(4-fluorophenyl)-methyl]-4-methyl-7-(trifluoromethyl)-quinoline-3-carboxylic acid amide] were, in that order, 0.35 µM and 105%.
The like results for `Cc1c(C(=O)NCc2cccc(F)c2)c(N(C)C)nc2cc(C(F)(F)F)ccc12` [Example 4, 2-dimethylamino-N-[(3-fluorophenyl)-methyl]-4-methyl-7-(trifluoromethyl)-quinoline-3-carboxylic acid amide] were, in that order, 0.51 µM and 140%.
In the same order, the values of `CCN(CC)c1nc2cc(C(F)(F)F)ccc2c(C)c1C(=O)NCc1ccc(F)cc1` [Example 5, 2-diethylamino-N-[(4-fluorophenyl)-methyl]-4-methyl-7-(trifluoromethyl)-quinoline-3-carboxylic acid amide] are 0.721 µM and 205%.
Regarding `Cc1c(C(=O)NCc2ccc(F)cc2)c(N2CCCC2)nc2cc(C(F)(F)F)ccc12` [Example 6, N-[(4-fluorophenyl)-methyl]-4-methyl-2-pyrrolidin-1-yl-7-(trifluoromethyl)-quinoline-3-carboxylic acid amide], at KCNQ2/3 channels, the EC50 worked out at 0.593 µM and the Emax amounted to 204%.
Turning to `CCN(CC)c1nc2cc(C(F)(F)F)ccc2c(C)c1C(=O)NCc1cccc(F)c1` [Example 7, 2-diethylamino-N-[(3-fluorophenyl)-methyl]-4-methyl-7-(trifluoromethyl)-quinoline-3-carboxylic acid amide], on KCNQ2/3 channels, the response was half-maximal at 0.466 µM (EC50) and the Emax came out at 199%. Moreover, the “Formalin test, mice, intravenous, MPE (dose)” value in test [2] (dose 10.0 mg/kg) is 65% (10.0).
For `CCNc1nc2cc(C(F)(F)F)ccc2c(C)c1C(=O)NCc1ccc(F)cc1` [Example 8, 2-ethylamino-N-[(4-fluorophenyl)-methyl]-4-methyl-7-(trifluoromethyl)-quinoline-3-carboxylic acid amide], on KCNQ2/3 channels, a half-maximal response (EC50) required 0.307 µM and the Emax was found to be 157%.
In the same order, the values of `CNc1nc2cc(C(F)(F)F)ccc2c(C)c1C(=O)NCc1cccc(F)c1` [Example 9, N-[(3-fluorophenyl)-methyl]-4-methyl-2-methylamino-7-(trifluoromethyl)-quinoline-3-carboxylic acid amide] are 0.403 µM and 111%.
In the same order, the values of `Cc1c(C(=O)NCc2cccc(F)c2)c(N2CCOCC2)nc2cc(C(F)(F)F)ccc12` [Example 10, N-[(3-Fluorophenyl)-methyl]-4-methyl-2-morpholin-4-yl-7-(trifluoromethyl)-quinoline-3-carboxylic acid amide] are 1.07 µM and 181%.
